For the test, the system named is B. longum AH1206. As to the kind of experiment: Antibiotic sensitivity, minimum inhibitory concentration (MIC). As to conditions: antibiotic against B. longum AH1206; unit not given.

Each structure is given as a SMILES string.

As for `CCC[C@@H]1C[C@@H](C(=O)N[C@@H]([C@H]2O[C@H](SC)[C@H](O)[C@@H](O)[C@H]2O)[C@H](C)Cl)N(C)C1` [clindamycin], the “minimum inhibitory concentration (MIC)” value is listed as 0.32.
`Cc1ncc([N+](=O)[O-])n1CCO` [metronidazole]: the “minimum inhibitory concentration (MIC)” value is recorded as 0.38.
For the molecule `CN[C@H](CC(C)C)C(=O)N[C@H]1C(=O)N[C@@H](CC(N)=O)C(=O)N[C@H]2C(=O)N[C@H]3C(=O)N[C@H](C(=O)N[C@H](C(=O)O)c4cc(O)cc(O)c4-c4cc3ccc4O)[C@H](O)c3ccc(c(Cl)c3)Oc3cc2cc(c3O[C@@H]2O[C@H](CO)[C@@H](O)[C@H](O)[C@H]2O[C@H]2C[C@](C)(N)[C@H](O)[C@H](C)O2)Oc2ccc(cc2Cl)[C@H]1O` [vancomycin], the “minimum inhibitory concentration (MIC)” value came out at 0.75.

The values are drawn from patent US20100074870A1, “Probiotic infant products” (priority 2008, published 2010).
